Results: PubChem BioAssay AID2060508 (Molecular Pharmacology Branch, DTP, NCI, 2025)

Tested on: 454973-116-R2-J3-PDC spheroids, viability, % test/control
Experiment: Anticancer human tumor 454973-116-R2-J3-PDC patient-derived pancreatic carcinoma cell line growth inhibition [GQUAD]
Conditions: spheroids with HUVEC and MSC; for IC50: curve of first compound; for viability, T/C: stronger effect = lower value
Excerpt: DNA G-quadruplex Stabilizer Agents in Combinations in Complex Spheroids
A high-throughput screen of multi-cell type tumor spheroids was designed to identify active combinations of DNA G-quadruplex stabilizer agents and targeted small molecules. Complex spheroids include a stromal component modeled by human endothelial cells (HUVEC) and fibroblasts modeled by human mesenchymal stem cells (MSCs). The concentration ranges selected for each drug and investigational agent were based upon clinically achievable concentrations if the clinical Cmax of the agent was known.
Compounds. The drugs and investigational agents: pidnarulex (CX-5461; NSC782164), APTO-253 (NSC789042), BRACO-19 (NSC847499), peposertib (NSC802822), ceralasertib (NSC780249), elimusertib (NSC800525), camonsertib (NSC841442), AZD-1390 (NSC803789), olaparib (NSC753686), talazoparib (NSC767125), ART-558 (NSC835418), sotorasib (NSC818433), MRTX-1133 (NSC836407), SN-38 (NSC673596), topotecan (NSC609699), etoposide (NSC141540), doxorubicin (NSC123127), gemcitabine (NSC613327), 5-fluorouracil (NSC19893), paclitaxel (NSC125973), vemurafenib (NSC761431), panobinostat (NSC761190), R-306465 (JNJ-16241199; NSC773264), adavosertib (NSC754352), TP-3654 (NSC805149), carboplatin (NSC241240), KSQ-4279 (NSC840948), and staurosporine (NSC755774) were obtained from the National Cancer Institute (NCI) Developmental Therapeutics Program Chemical Repository (34). The FDA-approved anticancer drug set is available from the NCI Developmental Therapeutics Program. […] The stock solutions were prepared in dimethyl sulfoxide (DMSO, Sigma-Aldrich, St. Louis, MO, cat. D2650) at 800-fold the tested concentration and stored at -70 degrees C prior to their use. All drugs and investigational agents were tested over a range starting from a high concentration at or near the clinical Cmax and decreasing in half-log increments. If the clinical Cmax for an agent had not been determined, the highest concentration tested was 10 microM.
2.3 Cell Culture. All cells were maintained in an incubator at 37 degrees C and 5% CO2 with 95% humidity. The PDC lines were cultured according to standard operating procedures established by the NCI PDMR. All PDCs were thawed and cultured in Matrigel-coated flasks prepared with a working solution of 1X Ham's F-12 nutrient mix, without supplementation (Invitrogen, cat. 11765054), 100 U/mL penicillin-streptomycin (Invitrogen, cat. 15140122), and 2.5% Matrigel (Corning Inc., cat. 354248) for the first three passages. The 857933-349-R-J2-PDC line was cultured in 6C/Colon 1B media, which includes advanced DMEM/F-12 (Thermo Fisher Scientific, cat. 12634028), 10 mM HEPES (Thermo Fisher Scientific, cat. 15630080), 1X GlutaMAX supplement (Thermo Fisher Scientific, cat. 35050061), 0.1 mg/mL primocin (InvivoGen, cat. ant-pm-2), 10% defined fetal bovine serum, heat inactivated (HyClone Laboratories Inc., cat. SH30070.03HI), 50% L-WRN conditioned media (ATCC, cat. CRL-3276), 1.25 mM N-Acetyl-L-cysteine (Sigma-Aldrich, cat. A9165), 10 mM nicotinamide (Sigma-Aldrich, cat. N0636), 1X B-27 supplement (Thermo Fisher Scientific, cat. 17504044), 1X N-2 supplement (Thermo Fisher Scientific, cat. 17502048), 10 microM Y-27632 dihydrochloride (Tocris Bioscience, cat. 1254), and 50 ng/mL human EGF recombinant protein (Thermo Fisher Scientific, cat. PHG0311). The 485176-168-R4-J1-PDC line was cultured in Panc media, which includes all 6C/Colon 1B media components plus 100 ng/mL human FGF-10 (Thermo Fisher Scientific, cat. 100-26), 500 nM SB-431542 (Selleckchem, cat. S1067), and gastrin (Tocris, cat. 3006).
[…]

[1] = second compound 0.0316 µM, first compound 0.0316 µM
[2] = second compound 0.0316 µM, first compound 0.1 µM
[3] = second compound 0.0316 µM, first compound 0.316 µM
[4] = second compound 0.0316 µM, first compound 1 µM
[5] = second compound 0.0316 µM, first compound 3.16 µM
[6] = second compound 0.0316 µM, first compound 10 µM
[7] = second compound 0.1 µM, first compound 0.0316 µM
[8] = second compound 0.1 µM, first compound 0.1 µM
[9] = second compound 0.1 µM, first compound 0.316 µM
[10] = second compound 0.1 µM, first compound 1 µM
[11] = second compound 0.1 µM, first compound 3.16 µM
[12] = second compound 0.1 µM, first compound 10 µM
[13] = second compound 0.316 µM, first compound 0.0316 µM
[14] = second compound 0.316 µM, first compound 0.1 µM
[15] = second compound 0.316 µM, first compound 0.316 µM
[16] = second compound 0.316 µM, first compound 1 µM
[17] = second compound 0.316 µM, first compound 3.16 µM
[18] = second compound 0.316 µM, first compound 10 µM
[19] = second compound 1 µM, first compound 0.0316 µM
[20] = second compound 1 µM, first compound 0.1 µM
[21] = second compound 1 µM, first compound 0.316 µM
[22] = second compound 1 µM, first compound 1 µM
[23] = second compound 1 µM, first compound 3.16 µM
[24] = second compound 1 µM, first compound 10 µM
[25] = second compound 3.16 µM, first compound 0.0316 µM
[26] = second compound 3.16 µM, first compound 0.1 µM
[27] = second compound 3.16 µM, first compound 0.316 µM
[28] = second compound 3.16 µM, first compound 1 µM
[29] = second compound 3.16 µM, first compound 3.16 µM
[30] = second compound 3.16 µM, first compound 10 µM
[31] = second compound 10 µM, first compound 0.0316 µM
[32] = second compound 10 µM, first compound 0.1 µM
[33] = second compound 10 µM, first compound 0.316 µM
[34] = second compound 10 µM, first compound 1 µM
[35] = second compound 10 µM, first compound 3.16 µM
[36] = second compound 10 µM, first compound 10 µM
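Further: spheroids exposed to compounds for seven days.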

`COc1cc(C2c3cc4c(cc3C(OC3OC5COC(C)OC5C(O)C3O)C3COC(=O)C23)OCO4)cc(OC)c1O` (centres undefined) + Cc1cnc(CNC(=O)c2c(=O)c3ccc(N4CCCN(C)CC4)nc3n3c2sc2ccccc23)cn1 showed an IC50 (second compound 0.0316 µM) of 0.644 µM, an IC50 (second compound 0.1 µM) of 0.507 µM and an IC50 (second compound 0.316 µM) of 0.469 µM. The IC50 (second compound 1 µM) was 1.06 µM, the IC50 (second compound 3.16 µM) was 1.8 µM and the IC50 (second compound 10 µM) was less than 0.0316 µM. It also gave a viability, T/C [1] of 100%, a viability, T/C [2] of 80.6% and a viability, T/C [3] of 70.7%. For the same compound, the viability, T/C [4] was 39.3%, the viability, T/C [5] was 17.8% and the viability, T/C [6] was 12.4%. It also gave a viability, T/C [7] of 85%, a viability, T/C [8] of 73.7% and a viability, T/C [9] of 59.2%. The viability, T/C [10] was 35%, the viability, T/C [11] was 28.6% and the viability, T/C [12] was 12%. For the same compound, the viability, T/C [13] was 75.6%, the viability, T/C [14] was 73.9% and the viability, T/C [15] was 53%. The viability, T/C [16] was 38%, the viability, T/C [17] was 29.4% and the viability, T/C [18] was 16.7%. It also gave a viability, T/C [19] of 67.8%, a viability, T/C [20] of 61.8% and a viability, T/C [21] of 55.9%. It also gave a viability, T/C [22] of 51.5%, a viability, T/C [23] of 40.5% and a viability, T/C [24] of 21.9%. The viability, T/C [25] was 66.9%, the viability, T/C [26] was 68.4% and the viability, T/C [27] was 58.3%. It also gave a viability, T/C [28] of 53.7%, a viability, T/C [29] of 47.5% and a viability, T/C [30] of 31.3%. The viability, T/C [31] was 16.2%, the viability, T/C [32] was 17.1% and the viability, T/C [33] was 58.4%. For the same compound, the viability, T/C [34] was 49.7%, the viability, T/C [35] was 29.3% and the viability, T/C [36] was 0.59%.
With `O=c1[nH]cc(F)c(=O)[nH]1` + Cc1cnc(CNC(=O)c2c(=O)c3ccc(N4CCCN(C)CC4)nc3n3c2sc2ccccc23)cn1 the IC50 (second compound 0.0316 µM) was 1.64 µM, the IC50 (second compound 0.1 µM) was 2.2 µM and the IC50 (second compound 0.316 µM) was greater than 10 µM. The IC50 (second compound 1 µM) was greater than 10 µM, the IC50 (second compound 3.16 µM) was greater than 10 µM and the IC50 (second compound 10 µM) was less than 0.0316 µM. For the same compound, the viability, T/C [1] was 103%, the viability, T/C [2] was 92.6% and the viability, T/C [3] was 98.9%. For the same compound, the viability, T/C [4] was 59.6%, the viability, T/C [5] was 33.9% and the viability, T/C [6] was 40.7%. For the same compound, the viability, T/C [7] was 89.7%, the viability, T/C [8] was 90.1% and the viability, T/C [9] was 78.6%. For the same compound, the viability, T/C [10] was 66.3%, the viability, T/C [11] was 37.9% and the viability, T/C [12] was 44.8%. For the same compound, the viability, T/C [13] was 73.8%, the viability, T/C [14] was 84.2% and the viability, T/C [15] was 78.1%. It also gave a viability, T/C [16] of 60.2%, a viability, T/C [17] of 46.5% and a viability, T/C [18] of 53.8%. For the same compound, the viability, T/C [19] was 66.8%, the viability, T/C [20] was 67.2% and the viability, T/C [21] was 79.4%. The viability, T/C [22] was 60.7%, the viability, T/C [23] was 50.1% and the viability, T/C [24] was 52.3%. It also gave a viability, T/C [25] of 62.1%, a viability, T/C [26] of 64.4% and a viability, T/C [27] of 64.2%. For the same compound, the viability, T/C [28] was 57.3%, the viability, T/C [29] was 59.3% and the viability, T/C [30] was 53.9%. For the same compound, the viability, T/C [31] was 0.72%, the viability, T/C [32] was 17.2% and the viability, T/C [33] was 52.7%. It also gave a viability, T/C [34] of 48%, a viability, T/C [35] of 18.3% and a viability, T/C [36] of 0.22%.
